Active and inactive are the calls of the source.
Legend:
[1] = molecular target: T1, DNA replication licensing factor MCM4 (Homo sapiens, UniProt P33991)
T1 sequence (P33991 whole entry): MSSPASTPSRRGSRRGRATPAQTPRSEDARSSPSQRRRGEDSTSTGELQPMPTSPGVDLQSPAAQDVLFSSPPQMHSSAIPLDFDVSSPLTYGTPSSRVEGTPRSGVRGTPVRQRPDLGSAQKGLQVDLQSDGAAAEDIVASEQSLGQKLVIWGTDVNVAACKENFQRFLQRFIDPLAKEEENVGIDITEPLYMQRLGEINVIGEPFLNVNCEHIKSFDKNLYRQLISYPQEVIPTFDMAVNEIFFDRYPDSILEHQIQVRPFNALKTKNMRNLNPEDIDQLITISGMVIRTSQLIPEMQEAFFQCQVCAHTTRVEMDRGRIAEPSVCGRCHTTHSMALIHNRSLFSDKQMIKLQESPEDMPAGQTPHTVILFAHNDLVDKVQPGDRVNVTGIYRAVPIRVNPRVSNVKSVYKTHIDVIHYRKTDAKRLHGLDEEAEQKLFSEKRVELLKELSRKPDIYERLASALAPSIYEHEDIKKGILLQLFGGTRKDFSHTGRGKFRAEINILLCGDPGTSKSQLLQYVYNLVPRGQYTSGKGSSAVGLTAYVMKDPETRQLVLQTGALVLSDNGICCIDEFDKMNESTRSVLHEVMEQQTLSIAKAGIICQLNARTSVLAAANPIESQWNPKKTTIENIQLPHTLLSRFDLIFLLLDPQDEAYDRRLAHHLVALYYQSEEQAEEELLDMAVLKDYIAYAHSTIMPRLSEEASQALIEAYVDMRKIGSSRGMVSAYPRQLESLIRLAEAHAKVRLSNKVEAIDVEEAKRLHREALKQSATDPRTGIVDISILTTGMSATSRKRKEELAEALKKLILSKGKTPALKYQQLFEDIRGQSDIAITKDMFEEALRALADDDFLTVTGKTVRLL

Activated CDC42 kinase 1 = Activated CDC42 kinase 1 (Homo sapiens, UniProt Q07912)
[2] = molecular target: Proto-oncogene tyrosine-protein kinase Src (Homo sapiens, UniProt P12931)
[3] = molecular target: Mitotic checkpoint serine/threonine-protein kinase BUB1 (Homo sapiens, UniProt O43683)
[4] = molecular target: T2, Probable ATP-dependent RNA helicase DDX6 (Homo sapiens, UniProt P26196)
T2 sequence (P26196 whole entry): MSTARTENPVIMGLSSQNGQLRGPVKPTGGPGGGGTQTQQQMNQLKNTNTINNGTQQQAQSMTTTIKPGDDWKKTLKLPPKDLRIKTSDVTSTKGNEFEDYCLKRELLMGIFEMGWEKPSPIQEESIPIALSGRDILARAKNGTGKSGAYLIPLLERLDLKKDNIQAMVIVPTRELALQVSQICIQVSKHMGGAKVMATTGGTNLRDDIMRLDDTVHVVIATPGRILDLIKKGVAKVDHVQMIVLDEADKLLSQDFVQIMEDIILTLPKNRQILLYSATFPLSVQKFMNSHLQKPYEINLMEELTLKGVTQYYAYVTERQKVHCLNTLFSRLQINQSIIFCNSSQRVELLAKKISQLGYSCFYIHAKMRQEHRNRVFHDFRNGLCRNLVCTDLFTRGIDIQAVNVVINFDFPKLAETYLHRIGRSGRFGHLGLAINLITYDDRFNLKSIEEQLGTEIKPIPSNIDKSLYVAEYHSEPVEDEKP

[5] = molecular target: Putative heat shock protein HSP 90-beta 2 (Homo sapiens, UniProt Q58FF8)
[6] = molecular target: T3, Serine/threonine-protein kinase Nek2 (Homo sapiens, UniProt P51955)
T3 sequence (P51955 whole entry): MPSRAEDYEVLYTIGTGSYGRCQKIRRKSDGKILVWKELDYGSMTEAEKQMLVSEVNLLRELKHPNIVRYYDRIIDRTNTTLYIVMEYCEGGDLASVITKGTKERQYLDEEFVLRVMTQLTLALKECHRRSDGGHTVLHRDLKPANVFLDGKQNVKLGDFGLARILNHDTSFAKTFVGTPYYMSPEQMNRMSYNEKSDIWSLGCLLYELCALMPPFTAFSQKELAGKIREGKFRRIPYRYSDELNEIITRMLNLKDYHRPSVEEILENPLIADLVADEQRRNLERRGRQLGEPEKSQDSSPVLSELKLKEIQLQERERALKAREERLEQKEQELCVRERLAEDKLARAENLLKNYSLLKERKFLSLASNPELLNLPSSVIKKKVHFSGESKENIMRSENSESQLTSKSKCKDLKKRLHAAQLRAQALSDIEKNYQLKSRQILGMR

Midasin = Midasin (Homo sapiens, UniProt Q9NU22)
[7] = molecular target: T4, Signal recognition particle receptor subunit alpha (Homo sapiens, UniProt P08240)
T4 sequence (P08240 whole entry): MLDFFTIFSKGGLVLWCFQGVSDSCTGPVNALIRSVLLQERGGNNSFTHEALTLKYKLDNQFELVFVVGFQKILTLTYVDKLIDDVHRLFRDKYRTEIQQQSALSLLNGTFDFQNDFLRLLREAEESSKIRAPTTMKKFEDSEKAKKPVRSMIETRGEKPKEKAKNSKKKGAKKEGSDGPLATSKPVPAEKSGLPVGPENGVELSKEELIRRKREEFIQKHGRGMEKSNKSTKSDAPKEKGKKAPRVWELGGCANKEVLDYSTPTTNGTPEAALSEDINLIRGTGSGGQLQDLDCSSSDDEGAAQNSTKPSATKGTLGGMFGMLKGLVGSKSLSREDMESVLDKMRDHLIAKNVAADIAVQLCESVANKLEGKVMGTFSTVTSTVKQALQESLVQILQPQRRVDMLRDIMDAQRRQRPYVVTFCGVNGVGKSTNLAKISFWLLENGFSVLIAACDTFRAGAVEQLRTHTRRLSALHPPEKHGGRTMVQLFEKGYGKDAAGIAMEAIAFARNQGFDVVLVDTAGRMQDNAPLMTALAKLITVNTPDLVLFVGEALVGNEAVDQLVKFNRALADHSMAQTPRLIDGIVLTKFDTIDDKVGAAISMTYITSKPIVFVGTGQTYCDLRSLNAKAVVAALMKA

[8] = molecular target: T5, Ras-related protein Rab-27A (Homo sapiens, UniProt P51159)
T5 sequence (P51159 whole entry): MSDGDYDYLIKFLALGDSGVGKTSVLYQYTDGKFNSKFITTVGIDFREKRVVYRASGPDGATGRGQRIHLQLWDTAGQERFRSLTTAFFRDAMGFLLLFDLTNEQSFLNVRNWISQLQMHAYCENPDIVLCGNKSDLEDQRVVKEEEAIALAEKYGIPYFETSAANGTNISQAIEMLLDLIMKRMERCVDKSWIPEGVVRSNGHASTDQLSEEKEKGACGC
Further: in the data inactive means no Kd found up to 30 µM.

Mitotic checkpoint serine/threonine-protein kinase BUB1, sequence (O43683 whole entry): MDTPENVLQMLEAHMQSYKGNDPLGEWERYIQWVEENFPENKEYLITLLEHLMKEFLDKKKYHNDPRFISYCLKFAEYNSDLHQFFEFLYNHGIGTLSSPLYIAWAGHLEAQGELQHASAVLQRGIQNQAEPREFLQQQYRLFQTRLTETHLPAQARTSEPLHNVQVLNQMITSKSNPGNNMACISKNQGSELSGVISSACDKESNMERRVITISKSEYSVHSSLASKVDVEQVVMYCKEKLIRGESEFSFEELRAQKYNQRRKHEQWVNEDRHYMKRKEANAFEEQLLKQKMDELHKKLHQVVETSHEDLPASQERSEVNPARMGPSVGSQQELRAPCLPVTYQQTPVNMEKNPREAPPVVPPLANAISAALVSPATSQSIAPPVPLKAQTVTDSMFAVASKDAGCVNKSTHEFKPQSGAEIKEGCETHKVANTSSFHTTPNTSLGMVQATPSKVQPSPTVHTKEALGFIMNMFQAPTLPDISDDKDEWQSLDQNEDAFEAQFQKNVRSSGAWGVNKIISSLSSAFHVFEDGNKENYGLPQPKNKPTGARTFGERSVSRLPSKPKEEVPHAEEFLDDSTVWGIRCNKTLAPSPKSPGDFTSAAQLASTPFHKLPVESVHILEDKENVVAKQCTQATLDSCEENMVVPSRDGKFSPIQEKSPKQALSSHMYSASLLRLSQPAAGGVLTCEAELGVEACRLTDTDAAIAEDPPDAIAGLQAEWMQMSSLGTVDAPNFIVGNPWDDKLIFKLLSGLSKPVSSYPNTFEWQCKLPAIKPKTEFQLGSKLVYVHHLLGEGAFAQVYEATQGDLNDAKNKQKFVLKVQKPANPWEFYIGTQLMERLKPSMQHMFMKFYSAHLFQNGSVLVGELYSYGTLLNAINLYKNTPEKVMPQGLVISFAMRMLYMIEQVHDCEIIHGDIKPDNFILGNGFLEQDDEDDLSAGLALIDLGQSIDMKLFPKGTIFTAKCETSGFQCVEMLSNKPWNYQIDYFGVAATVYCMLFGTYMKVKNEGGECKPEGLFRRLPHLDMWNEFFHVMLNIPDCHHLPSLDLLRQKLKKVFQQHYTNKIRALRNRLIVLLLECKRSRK
Activated CDC42 kinase 1, sequence (Q07912 whole entry): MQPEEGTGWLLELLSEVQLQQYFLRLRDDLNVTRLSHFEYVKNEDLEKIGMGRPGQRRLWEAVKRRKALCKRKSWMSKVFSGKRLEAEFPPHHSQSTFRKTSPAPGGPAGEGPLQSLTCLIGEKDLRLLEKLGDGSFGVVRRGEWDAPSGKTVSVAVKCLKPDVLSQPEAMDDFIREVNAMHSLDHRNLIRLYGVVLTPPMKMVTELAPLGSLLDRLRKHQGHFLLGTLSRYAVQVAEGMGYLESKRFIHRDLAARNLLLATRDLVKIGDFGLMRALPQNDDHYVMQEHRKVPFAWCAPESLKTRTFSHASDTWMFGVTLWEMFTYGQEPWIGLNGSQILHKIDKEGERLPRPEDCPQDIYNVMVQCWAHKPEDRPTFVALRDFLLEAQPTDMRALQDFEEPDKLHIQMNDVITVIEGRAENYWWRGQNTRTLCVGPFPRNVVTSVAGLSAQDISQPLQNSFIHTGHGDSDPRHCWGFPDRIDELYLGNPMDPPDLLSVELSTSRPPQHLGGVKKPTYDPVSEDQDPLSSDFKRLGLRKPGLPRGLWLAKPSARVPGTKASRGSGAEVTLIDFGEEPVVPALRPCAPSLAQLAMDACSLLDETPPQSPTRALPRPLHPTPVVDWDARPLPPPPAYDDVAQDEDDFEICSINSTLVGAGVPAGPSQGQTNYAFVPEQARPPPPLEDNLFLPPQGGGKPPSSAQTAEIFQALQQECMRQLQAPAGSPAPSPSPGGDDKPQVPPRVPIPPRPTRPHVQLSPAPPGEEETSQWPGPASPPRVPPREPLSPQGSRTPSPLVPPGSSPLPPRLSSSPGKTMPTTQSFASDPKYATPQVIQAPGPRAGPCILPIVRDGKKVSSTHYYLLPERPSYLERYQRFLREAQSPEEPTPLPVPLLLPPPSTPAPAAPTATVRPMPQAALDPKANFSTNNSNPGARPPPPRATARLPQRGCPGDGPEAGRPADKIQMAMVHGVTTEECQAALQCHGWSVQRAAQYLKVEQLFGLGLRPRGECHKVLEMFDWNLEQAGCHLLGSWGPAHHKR
Proto-oncogene tyrosine-protein kinase Src, sequence (P12931 2-536 limits assumed): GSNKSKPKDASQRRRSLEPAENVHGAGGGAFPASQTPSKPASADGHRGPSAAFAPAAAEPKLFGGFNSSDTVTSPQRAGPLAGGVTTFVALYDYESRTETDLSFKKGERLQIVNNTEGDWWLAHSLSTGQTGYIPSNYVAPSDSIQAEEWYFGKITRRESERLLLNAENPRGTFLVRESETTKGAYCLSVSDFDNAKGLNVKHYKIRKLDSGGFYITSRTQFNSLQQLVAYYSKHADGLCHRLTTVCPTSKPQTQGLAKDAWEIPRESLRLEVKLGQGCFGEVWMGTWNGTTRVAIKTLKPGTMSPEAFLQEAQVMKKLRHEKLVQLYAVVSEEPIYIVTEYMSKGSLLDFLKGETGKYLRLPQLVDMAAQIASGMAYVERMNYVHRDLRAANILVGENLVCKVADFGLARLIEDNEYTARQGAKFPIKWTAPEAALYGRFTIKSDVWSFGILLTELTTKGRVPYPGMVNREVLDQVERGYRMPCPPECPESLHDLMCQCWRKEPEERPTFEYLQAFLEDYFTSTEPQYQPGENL
Putative heat shock protein HSP 90-beta 2, sequence (Q58FF8 whole entry): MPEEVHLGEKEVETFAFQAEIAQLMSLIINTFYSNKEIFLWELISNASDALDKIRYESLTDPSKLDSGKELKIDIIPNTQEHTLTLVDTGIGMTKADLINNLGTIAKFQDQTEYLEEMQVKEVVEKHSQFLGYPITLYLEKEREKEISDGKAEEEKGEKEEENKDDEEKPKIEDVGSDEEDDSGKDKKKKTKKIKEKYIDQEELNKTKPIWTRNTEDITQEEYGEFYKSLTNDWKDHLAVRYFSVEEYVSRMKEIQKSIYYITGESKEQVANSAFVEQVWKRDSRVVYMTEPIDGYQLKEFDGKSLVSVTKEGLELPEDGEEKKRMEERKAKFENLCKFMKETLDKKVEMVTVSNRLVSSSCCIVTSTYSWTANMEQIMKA

Row | SMILES | Kd [1] | Kd (Activated CDC42 kinase 1) | Kd [2] | Kd [3] | Kd [4] | Kd [5] | Kd [6] | Kd (Midasin) | Kd [7] | Kd [8]
1 | Cn1c(=O)c(F)c(Nc2ccc(I)cc2F)c2c(=O)n(C[C@@H](O)CO)cnc21 [TAK-733] | > 30 µM (inactive) | > 30 µM (inactive) | > 30 µM (inactive) | > 30 µM (inactive) | > 30 µM (inactive) | > 30 µM (inactive) | > 30 µM (inactive) | > 30 µM (inactive) | > 30 µM (inactive) | 
2 | CC(C)(O)CC(=O)NCCn1ccc2ncnc(Nc3ccc(Oc4cccc(C(F)(F)F)c4)c(Cl)c3)c21 [TAK-285] | > 30 µM (inactive) | > 30 µM (inactive) | > 30 µM (inactive) | > 30 µM (inactive) | > 30 µM (inactive) | > 30 µM (inactive) | > 30 µM (inactive) | > 30 µM (inactive) | > 30 µM (inactive) | 
3 | Cc1cc(C(=O)Nc2cc(Oc3ccc4nc(NC(=O)C5CC5)cn4n3)ccc2C)n(C)n1 [TAK-593] | > 30 µM (inactive) | > 30 µM (inactive) | > 30 µM (inactive) | > 30 µM (inactive) | > 30 µM (inactive) | > 30 µM (inactive) | > 30 µM (inactive) | > 30 µM (inactive) | > 30 µM (inactive) | 
4 | C=CC(=O)Nc1cccc(Nc2nc(Nc3ccc(N4CCN(C(C)=O)CC4)cc3OC)ncc2C(F)(F)F)c1 [ROCILETINIB] | > 30 µM (inactive) | > 30 µM (inactive) | > 30 µM (inactive) |  | > 30 µM (inactive) | > 30 µM (inactive) | > 30 µM (inactive) | > 30 µM (inactive) | > 30 µM (inactive) | 
5 | O=C(O)c1ccc2c(c1)nc(Nc1cccc(Cl)c1)c1ccncc12 [SILMITASERTIB] | > 30 µM (inactive) | > 30 µM (inactive) | > 30 µM (inactive) |  | > 30 µM (inactive) | > 30 µM (inactive) | > 30 µM (inactive) | > 30 µM (inactive) | > 30 µM (inactive) | 
6 | COc1cc(F)c(F)c(Nc2ccc(I)cc2F)c1NS(=O)(=O)C1(C[C@H](O)CO)CC1 [REFAMETINIB] | > 30 µM (inactive) | > 30 µM (inactive) | > 30 µM (inactive) | > 30 µM (inactive) | > 30 µM (inactive) | > 30 µM (inactive) | > 30 µM (inactive) | > 30 µM (inactive) |  | > 30 µM (inactive)
7 | O[C@H]1CC[C@H](Nc2ncc3nc(Nc4c(F)cc(F)cc4F)n([C@H]4CCOC4)c3n2)CC1 [TANZISERTIB] | > 30 µM (inactive) | > 30 µM (inactive) | > 30 µM (inactive) | > 30 µM (inactive) | > 30 µM (inactive) | > 30 µM (inactive) | > 30 µM (inactive) | > 30 µM (inactive) |  | > 30 µM (inactive)
8 | CC1(COc2ccc3c(c2)ncn3-c2ccc3cccc(N4CCC(N)CC4)c3n2)COC1 [CRENOLANIB] | > 30 µM (inactive) | > 30 µM (inactive) | > 30 µM (inactive) | > 30 µM (inactive) | > 30 µM (inactive) | 2.57 µM (active) | > 30 µM (inactive) | > 30 µM (inactive) |  | > 30 µM (inactive)
9 | CN1CCN(c2nc(C3=C(c4c[nH]c5ccccc45)C(=O)NC3=O)c3ccccc3n2)CC1 [SOTRASTAURIN] | > 30 µM (inactive) | > 30 µM (inactive) | > 30 µM (inactive) | > 30 µM (inactive) | > 30 µM (inactive) | > 30 µM (inactive) | > 30 µM (inactive) | > 30 µM (inactive) |  | > 30 µM (inactive)
10 | COc1ccc(-c2ccc3ncc4c(c3c2)n(-c2ccc(N3CCNCC3)c(C(F)(F)F)c2)c(=O)n4C)cn1 [BGT-226 FREE BASE] | > 30 µM (inactive) | > 30 µM (inactive) | > 30 µM (inactive) | > 30 µM (inactive) | > 30 µM (inactive) | > 30 µM (inactive) | > 30 µM (inactive) | > 30 µM (inactive) |  | > 30 µM (inactive)
